What follows are molecules tested against T1, GABA-A receptor; alpha-5/beta-3/gamma-2 (Homo sapiens, UniProt P18507+P28472+P31644) (assay: Binding Assay).
T1 sequence (P31644 whole entry): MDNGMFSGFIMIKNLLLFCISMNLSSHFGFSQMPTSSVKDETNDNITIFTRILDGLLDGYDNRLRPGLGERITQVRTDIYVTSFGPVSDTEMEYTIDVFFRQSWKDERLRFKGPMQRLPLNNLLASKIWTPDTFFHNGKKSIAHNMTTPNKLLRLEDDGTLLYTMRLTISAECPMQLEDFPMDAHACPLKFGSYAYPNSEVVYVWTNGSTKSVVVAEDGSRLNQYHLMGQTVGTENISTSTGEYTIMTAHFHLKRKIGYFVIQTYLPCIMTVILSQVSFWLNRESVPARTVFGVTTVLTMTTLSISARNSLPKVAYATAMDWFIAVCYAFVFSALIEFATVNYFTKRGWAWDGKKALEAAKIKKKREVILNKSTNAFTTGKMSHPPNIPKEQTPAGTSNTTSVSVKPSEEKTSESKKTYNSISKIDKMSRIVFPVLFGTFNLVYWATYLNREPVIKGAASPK
T1 sequence (P18507 whole entry): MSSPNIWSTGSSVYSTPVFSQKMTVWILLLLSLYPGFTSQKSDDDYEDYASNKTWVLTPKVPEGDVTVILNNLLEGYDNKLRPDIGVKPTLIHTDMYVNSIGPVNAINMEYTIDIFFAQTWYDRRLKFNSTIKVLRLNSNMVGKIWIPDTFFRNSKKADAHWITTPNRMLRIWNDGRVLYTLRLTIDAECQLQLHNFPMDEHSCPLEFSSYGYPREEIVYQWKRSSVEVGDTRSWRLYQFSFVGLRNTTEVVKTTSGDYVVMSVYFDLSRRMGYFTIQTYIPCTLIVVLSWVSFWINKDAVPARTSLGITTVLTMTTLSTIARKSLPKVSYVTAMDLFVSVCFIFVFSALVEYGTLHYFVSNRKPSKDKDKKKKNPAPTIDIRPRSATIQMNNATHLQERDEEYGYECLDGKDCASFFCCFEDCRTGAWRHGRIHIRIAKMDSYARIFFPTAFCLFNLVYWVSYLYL
T1 sequence (P28472 whole entry): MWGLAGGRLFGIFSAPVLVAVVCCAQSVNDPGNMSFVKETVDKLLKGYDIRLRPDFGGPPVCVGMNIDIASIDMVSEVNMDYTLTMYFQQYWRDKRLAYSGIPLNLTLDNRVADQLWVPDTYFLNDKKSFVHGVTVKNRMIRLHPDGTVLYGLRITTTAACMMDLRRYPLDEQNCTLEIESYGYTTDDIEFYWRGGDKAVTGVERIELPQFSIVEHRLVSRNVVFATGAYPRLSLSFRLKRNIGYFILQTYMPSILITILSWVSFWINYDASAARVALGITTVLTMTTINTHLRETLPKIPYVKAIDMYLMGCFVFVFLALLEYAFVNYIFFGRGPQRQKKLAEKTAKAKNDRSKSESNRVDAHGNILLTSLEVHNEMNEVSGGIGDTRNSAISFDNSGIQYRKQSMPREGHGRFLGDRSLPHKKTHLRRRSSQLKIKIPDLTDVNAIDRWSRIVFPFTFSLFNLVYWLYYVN
Method: Receptor binding assays were performed in 96-well format in deep-well plates. For each 96-well plate one ampule of membrane homogenate was thawed and diluted in binding buffer (50 mM Tris pH=7.4, 100 mM KCl) and 200 μL was dispensed into each well. Radioligand [3H]Ro151788 (Perkin Elmer: NET757250UC) was prepared in binding buffer and added to each well in 50 μL volume to give final concentration of 0.5 nM. Test compounds in suitable concentration(s) were added in additional 50 μL. The final assay volume was 300 μL. Incubation was carried out for 60 minutes at 4° C. For non-specific binding 10 μM unlabeled diazepam was used. After incubation samples were filtered over UniFilter GF/B™ using Filtermate Harvester (Perkin Elmer) and washed with 5×1 mL binding buffer. The plate was dried at 40° C. for an hour and 40 μL Microscint (Perkin Elmer) scintillation cocktail was added to each well. The plate was read in Microbeta (Perkin Elmer).

Compound | Ki [nM]
Cc1ccc(-n2nnc(C)c2COc2cc3c(cn2)CN(CC(C)C)CC3)cn1 [US20250051323, Example 41] | 61.5
COc1ccc(-n2nnc(C)c2COc2cc3c(cn2)CN(C2CCOCC2)CC3)cn1 [US20250051323, Example 40] | 28.5
CCC1(N2CCc3cc(OCc4c(C)nnn4-c4ccc(C)nc4)ncc3C2)COC1 [US20250051323, Example 43] | 19
Cc1ccc(-c2noc(C)c2COc2cc3c(cn2)CN(C2CCC2)CC3)cn1 [US20250051323, Example 4] | 4.5
Cc1onc(-c2ccc(C(F)(F)F)nc2)c1COc1cc2c(nn1)CN(C1CCOC1)CC2 (stereo not drawn) [US20250051323, Example 18] | 12.7
Cc1nnn(-c2ccc(C(F)(F)F)nc2)c1COc1cc2c(cn1)CN(CC1CCS(=O)(=O)C1)CC2 (stereo not drawn) [US20250051323, Example 36] | 53.5
Cc1nnn(-c2ccc(C(F)(F)F)nc2)c1COc1cc2c(cn1)CN(c1cccnc1)CC2 [US20250051323, Example 37] | 37.9
Cc1ccc(-n2nnc(C)c2COc2cc3c(cn2)CN(C2(C(C)C)COC2)CC3)cn1 [US20250051323, Example 42] | 28
